The text below walks through data of patent US7615638B2, “Synthesis of grossularines-1 and analogs thereof and method of use” (City of Hope, priority 2006, dated 2009).

This series relates to DU145 human prostate cancer cells. Description: MTS viability assay in DU145 human prostate cancer cells. The conditions noted are these: for cell viability (cytotoxicity), initial screening: 30 μM compound, DU145 cells (FIG. 8); for IC50: read-out: IC50 (cell viability). A general note: Tetrazolium dyes change colour on reduction, which living cells bring about.
The mark [1] stands for this setting: 0.1 to 20 μM, 48 h, MTS, DU145 cells (FIGS. 9-12).

In general, IC50 refers to the midpoint of a concentration-inhibition curve.

Where two headings read alike, the source gives them in different places.

Method: An MTS assay is a colorimetric experimental method to determine the number of viable cells in cytotoxicity assays and utilizes 3-(4,5-dimethylthiazol-2-yl)-5-(3-carboxymethoxyphenyl)-2-(4-sulfophenyl)-2H-tetrazolium, inner salt (MTS).
The experimental setup was as follows: DU145 human prostate cancer cells were obtained from ATCC and cultured in RPMI-1640 medium containing 10% fetal bovine serum (FBS), 100 units/ml of penicillin, and 100 μg/ml streptomycin. All cells were maintained in a 5% CO2 atmosphere at 37° C. To determine the viability of the cells, MTS assays were performed as described by the supplier (Promega; Madison, Wis.). Briefly, cells (5,000/well) were seeded in 96-well plates and incubated overnight at 37° C. in 5% CO2. Cells were treated for 48 h with 30 μM of each compound for initial screenings.
MTS dye was added to each well for 1 h. Cell viability was determined by tetrazolium conversion to its formazan dye and absorbance of formazan was measured at 490 nm. Values are the mean ±SD. Each experiment was performed in quadruplicate.
Dimethyl sulfoxide (DMSO) was used as the vehicle control. MTS dye was added to each 96-well plate well for one hour. Cell viability was determined by tetrazolium conversion to its formazan dye and absorbance of formazan was measured at 490 nm using an automated ELISA plate reader. The production of formazan dye was directly proportional to the number of living cells.
DU145 cells (5,000 cells/each well) were treated in dose-dependent manner for 48 h. Then, MTS assay was performed with four samples for each experiment.

As to grossularine-1 [Compound 1], where the note is “48 h, MTS”, the “cell viability (cytotoxicity), initial screening” value is “complete loss of cell viability”. Moreover, the IC50 under setting [1] is 10.3 µM.

“N,N-didesmethylgrossularine-1 [Compound 2]”: the “cell viability (cytotoxicity), initial screening” value (48 h, MTS) is “complete loss of cell viability”. Moreover, the half-maximal inhibitory concentration (IC50) under setting [1] amounted to 7.3 µM.

`CN(C)c1nc2c([nH]1)c(C(=N)c1c[nH]c3ccccc13)nc1[nH]c3ccccc3c12` [Compound 8]: the IC50 (Homo sapiens, DU-145, 48 h) turned out to be 1.8 µM.
